Laboratory results from patent US9433608B2 (priority 2013, dated 2016).

What was measured:
Details in all cases: in vivo
[1] = system: TIA (transient ischemic attack) symptoms
[2] = system: 12 mm right basal ganglia infarct (acute lacunar infarct); design: species or system human
[3] = system: subacute temporal lobe infarct with encephalomalacia; design: species or system human

Row | SMILES | clinical state the next day [1] | effect on penumbra of injury [1] | sedation (side effect) on the second night [1] | swallowing on the second night [1] | function after treatment [2] | leg weakness, expansion of the infarct, symptoms [2] | mental clarity noted by the patient [3] | vision in the right hemifield [3]
1 | Cc1ncc2n1-c1ccc(Cl)cc1C(c1ccccc1F)=NC2 [midazolam, 8-chloro-6-(2-fluorophenyl)-1-methyl-4H-imidazo[1,5a][1,4]benzodiazepine] | sitting talking to relatives, mentating better but could not swallow their own saliva | preventing expansion of the penumbra of injury | drowsy | could swallow their own saliva | – | – | – | –
2 | CC12CC3CC(C)(C1)CC(N)(C3)C2 [memantine, 3,5-dimethyladamantan-1-amine] | – | – | – | – | returned to pre-stroke function | the weakness resolved and there was no further expansion of the infarct or worsening of symptoms | clearing of fogginess | unable to regain vision in the right hemifield
3 | CN1C(=O)CN=C(c2ccccc2)c2cc(Cl)ccc21 [diazepam, 7-chloro-1,3-dihydro-1-methyl-5-phenyl-1,4-benzodiazepin-2(3H)-one] | – | – | – | – | returned to pre-stroke function | the weakness resolved and there was no further expansion of the infarct or worsening of symptoms | clearing of fogginess | unable to regain vision in the right hemifield
